Consider two molecules from patent US20090172831A1, “Methods for the production of plants resistant to HPPD herbicides” (Syngenta Limited, priority 2000, published 2009).

One experiment has as its target T1, Arabidopsis HPPD (Arabidopsis thaliana, UniProt P93836).
T1 construct: made in house; host or cells: E. coli BL21 (DE3) codon+ RP
T1 sequence (P93836 1-445): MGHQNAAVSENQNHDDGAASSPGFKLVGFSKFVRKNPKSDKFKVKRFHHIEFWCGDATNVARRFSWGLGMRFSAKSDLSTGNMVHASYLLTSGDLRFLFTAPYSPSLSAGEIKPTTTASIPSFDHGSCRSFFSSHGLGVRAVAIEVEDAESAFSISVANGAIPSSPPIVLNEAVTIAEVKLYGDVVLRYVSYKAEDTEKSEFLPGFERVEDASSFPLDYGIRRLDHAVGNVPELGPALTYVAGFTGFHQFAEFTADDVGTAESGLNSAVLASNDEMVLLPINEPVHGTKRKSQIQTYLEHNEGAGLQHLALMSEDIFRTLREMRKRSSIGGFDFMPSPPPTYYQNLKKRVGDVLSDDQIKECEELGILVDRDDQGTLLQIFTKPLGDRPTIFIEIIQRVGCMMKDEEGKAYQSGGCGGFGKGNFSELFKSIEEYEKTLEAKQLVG
Put plainly: Dissociation of enzyme/inhibitor complexes by exchange with 14C-labelled inhibitor (koff; Kd = koff/kon). The experiment is classed as binding. On the procedure:
It will be appreciated that many suitable methods known in the art for determining such low koff values are suitable for working the current invention. These include measuring rates of exchange of radio or otherwise labelled inhibitors either with or away from the enzyme inhibitor complex. For example enzyme inhibitor complexes can readily be prepared by incubating HPPD preparations with labelled or unlabelled inhibitor and then, after suitable periods, optionally rapidly separating the thus formed enzyme inhibitor complex from excess inhibitor by any suitable method such as ultrafiltration, binding to filters or exchange down a gel filtration column. Exchange reactions with the, thus prepared enzyme inhibitor complex is then initiated by addition of, as appropriate, excess labelled or unlabelled inhibitor. […] Many methods such as radiometric, fluorimetric, NMR, fluorescence depolarisation, EPR, Mossbauer, UV/VIS spectrophotometry etc. or phonon resonance can, in principle, be used to monitor the enzyme/ligand exchange reactions and, particularly in this case where the enzyme contains an iron atom at the ligand binding site. Optionally, the monitoring method may be continuous (as, for example, with scintillation proximity/bead-based methods) or, discontinuous, based upon collection of data at various timepoints wherein samples are removed and the bound and unbound label components rapidly separated and quantitated.
(§1) Values of koff can suitably be calculated by computer fitting based upon is numerical integration of the exchange data along with information on the active-site concentration of HPPD and upon kon values obtained as described below. […] In any event, koff values are always here calculated from the rate of the major slow exchange reaction.
^14C mesotrione is of specific activity 1.12 GBq/mmol. […] Following this initial binding reaction, exchange reactions are initiated by addition of cold mesotrione to a final concentration of 60 μM and 200 μl aliquots removed at various times to rapid chromatography down a NAP5 gel filtration column equilibrated in 50 mM BTP at pH 7 containing 0.1 M KCl, separation into fractions containing protein-bound or free radiolabel and liquid scintillation counting.
Nevertheless, here, for practical purposes, koff values are always here calculated from the rate of the major slow exchange reaction.
Not all test inhibitors are readily available in a radiolabelled form.

In a further experiment the target is Avena HPPD (Avena sativa, UniProt A0ACD5V6K6). Put plainly: In vitro measurements of Avena HPPD (dissociation rate constants, Ki). The experiment is classed as binding. The note with it: read-out: rate constants governing dissociation of the complexes.
Sequence of Avena HPPD (A0ACD5V6K6 entry or part of it): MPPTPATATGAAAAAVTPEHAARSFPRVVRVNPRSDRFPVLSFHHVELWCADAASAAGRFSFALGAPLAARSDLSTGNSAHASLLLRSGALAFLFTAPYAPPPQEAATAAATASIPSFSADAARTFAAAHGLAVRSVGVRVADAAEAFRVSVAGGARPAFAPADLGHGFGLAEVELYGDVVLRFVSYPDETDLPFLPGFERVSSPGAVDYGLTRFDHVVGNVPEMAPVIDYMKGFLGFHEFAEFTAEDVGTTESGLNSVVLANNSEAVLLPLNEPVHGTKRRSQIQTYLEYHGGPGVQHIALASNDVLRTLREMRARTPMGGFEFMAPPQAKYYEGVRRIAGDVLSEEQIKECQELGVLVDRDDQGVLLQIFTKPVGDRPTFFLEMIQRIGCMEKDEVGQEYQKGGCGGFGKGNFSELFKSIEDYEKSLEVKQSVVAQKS
The target of the next experiment is P. fluorescens HPPD (Pseudomonas fluorescens, UniProt A0ACG8AE61). The experiment in a line: Dissociation of enzyme/inhibitor complexes by exchange with 14C-labelled inhibitor (koff; Kd = koff/kon). The experiment is classed as binding.
Sequence of P. fluorescens HPPD (A0ACG8AE61 entry or part of it): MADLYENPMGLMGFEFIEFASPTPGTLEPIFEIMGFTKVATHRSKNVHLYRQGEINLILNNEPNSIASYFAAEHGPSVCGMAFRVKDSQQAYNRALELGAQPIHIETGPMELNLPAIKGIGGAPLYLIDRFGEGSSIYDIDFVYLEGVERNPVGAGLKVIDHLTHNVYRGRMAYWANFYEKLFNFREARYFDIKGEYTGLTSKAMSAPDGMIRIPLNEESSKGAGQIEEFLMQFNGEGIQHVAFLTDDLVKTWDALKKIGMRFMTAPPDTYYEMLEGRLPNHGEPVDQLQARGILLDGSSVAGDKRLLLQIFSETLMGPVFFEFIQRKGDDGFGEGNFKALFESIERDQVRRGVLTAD
Description: (§2) Herbicidal inhibitors of HPPD are found here to have generally low values of koff (in the range less than 0.0003 s^−1, often less than 0.000001 s^−1). It will be appreciated that many suitable methods known in the art for determining such low koff values are suitable for working the current invention. These include measuring rates of exchange of radio or otherwise labelled inhibitors either with or away from the enzyme inhibitor complex. For example enzyme inhibitor complexes can readily be prepared by incubating HPPD preparations with labelled or unlabelled inhibitor and then, after suitable periods, optionally rapidly separating the thus formed enzyme inhibitor complex from excess inhibitor by any suitable method such as ultrafiltration, binding to filters or exchange down a gel filtration column. Exchange reactions with the, thus prepared enzyme inhibitor complex is then initiated by addition of, as appropriate, excess labelled or unlabelled inhibitor. HPPD preparations suitable for use in the methods of the current invention are relatively unpurified, buffer-exchanged, supernatant fractions of spun crude lysates of E. coli strains engineered to express the HPPD enzyme of interest at a level of, typically, about 0.25-10% of the total soluble protein. Many methods such as radiometric, fluorimetric, NMR, fluorescence depolarisation, EPR, Mossbauer, UV/VIS spectrophotometry etc. or phonon resonance can, in principle, be used to monitor the enzyme/ligand exchange reactions and, particularly in this case where the enzyme contains an iron atom at the ligand binding site. Optionally, the monitoring method may be continuous (as, for example, with scintillation proximity/bead-based methods) or, discontinuous, based upon collection of data at various timepoints wherein samples are removed and the bound and unbound label components rapidly separated and quantitated.
as §1, with “reaction. It will be appreciated that within the scope of the current invention many methods of making the desired kinetic comparisons are possible without explicit or rigorous determination of off rates but, based upon the same underlying principle, will achieve the same selection result. […]” for “reaction.”
Not all test inhibitors are readily available in a radiolabelled form. A more general method of measuring off rates is to first form the complex with unlabelled test inhibitor, to rapidly exchange the complex free of excess unlabelled inhibitor and to then start the exchange reaction by addition of an excess of a standard labelled inhibitor, the kinetic properties of which are already known. The reaction is then monitored and the relative proportions of bound and unbound label determined at various times. […] The latter is the method of choice when the rate of exchange is fast (t½<3 h).
In, variants of the above methods, off rates are measured either in the presence or absence of ˜25% v/v glycerol. In the presence of glycerol values obtained are generally ˜1.5-3× slower than in its absence although sometimes the change is outside this range or, even, in the other direction. Further examples of data obtained are depicted in the following Table 3.
Crude Extracts of recombinant E. coli strains expressing, in the one case, a control HPPD (from Arabidopsis) and, in the other, one or more test HPPD sequences are prepared as described in the preceding example. The titre of active sites and enzyme activity are also defined and measured as described in the preceding examples. […]

For the next experiment, the target named is Wheat HPPD (Triticum aestivum, UniProt A0A3B6NLC6). The description is as above. The experiment is classed as binding.
Sequence of Wheat HPPD (A0A3B6NLC6 entry or part of it): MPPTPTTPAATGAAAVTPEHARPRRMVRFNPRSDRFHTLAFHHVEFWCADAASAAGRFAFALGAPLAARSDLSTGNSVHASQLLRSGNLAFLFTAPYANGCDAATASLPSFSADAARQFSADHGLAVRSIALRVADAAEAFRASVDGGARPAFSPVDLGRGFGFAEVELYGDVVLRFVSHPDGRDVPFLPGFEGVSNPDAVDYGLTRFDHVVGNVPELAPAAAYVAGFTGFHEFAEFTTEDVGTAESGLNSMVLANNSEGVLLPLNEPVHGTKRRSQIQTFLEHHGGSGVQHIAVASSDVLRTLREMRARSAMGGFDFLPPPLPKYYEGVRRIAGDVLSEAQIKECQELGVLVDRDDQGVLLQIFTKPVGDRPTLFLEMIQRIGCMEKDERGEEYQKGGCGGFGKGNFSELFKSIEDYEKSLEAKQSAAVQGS
Description: as §2
as §1, with “reaction. It will be appreciated that within the scope of the current invention many methods of making the desired kinetic comparisons are possible without explicit or rigorous determination of off rates but, based upon the same underlying principle, will achieve the same selection result.” for “reaction.”
The dissociation rates (off rates) of inhibitors selected from Formula 1 and/or 2 and/or 3 and/or 4 from the complexes that they form with test and control HPPD enzymes are suitably measured in a number of ways. Thus, for example, the rates of dissociation of mesotrione, a compound selected from Formula 1 and of the diketonitrile of isoxaflutole, a compound selected from Formula 3 from their respective complexes with, test, wheat HPPD and with, control, Arabidopsis HPPD are compared. The method and results from a typical test are as follows.
^14C mesotrione is of specific activity 1.12 GBq/mmol. This is ˜95% pure radiochemically by TLC and based upon the proportion of material tight-binding to HPPD. Arabidopsis and, (test), wheat HPPD are each diluted to a concentration of ˜0.45 and 0.54 μM, respectively into 1.6 ml of 50 mM Bis-Tris propane buffer at pH 7.0 containing 25% glycerol, 25 mM sodium ascorbate and 3 mg/l of bovine catalase (Sigma C3155˜50,000 units/mg) containing […] ^14C mesotrione and left to react at 25 C for 2.5-3 h. Following this initial binding reaction, exchange reactions are initiated by addition of cold mesotrione to a final concentration of 60 μM and 200 μl aliquots removed at various times to rapid chromatography down a NAP5 gel filtration column equilibrated in 50 mM BTP at pH 7 containing 0.1 M KCl, separation into fractions containing protein-bound or free radiolabel and liquid scintillation counting. […]

Experiment [1] relates to tobacco plants transformed to express wheat HPPD. Put plainly: Glasshouse spray test, visible damage. The experiment is classed as in vivo. Here is the method: (§3) Plants are 1) untransformed tobacco plants variety Samsun expressing the endogenous tobacco (control) HPPD gene, 2) tobacco plants transformed to express Pseudomonas HPPD according to the examples herein and 3) tobacco plants transformed to express Wheat HPPD also according to the examples herein.
(§4) Large numbers of plants are grown from seed in small pots in the glasshouse to the 5-7 leaf seedling stage and sprayed with a range of doses, suitably from 0.0 to 2000 g/ha, of different HPPD-inhibitor herbicides selected from compounds of Formula 1, 2, 3 and 4. Treatments are suitably Formulated in, for example, deionised water+0.5% Turbocharge™ surfactant or, alternatively, 50% acetone/water and applied at […] to a dozen or more replicates of each line and at each spray rate (where the plants were T1 plants (selfed progeny of primary transformants) and still segregating at normally 1:2:1) or, where, homozygous, 3-6 plants. The extent of visible damage in terms of bleaching of meristems and leaves, eventual necrosis and stunting of growth relative to unsprayed controls is assessed at ˜1 and 3 weeks after treatment. Data from susceptible segregants are excluded from the analysis. In summary, results obtained are as follows.

For experiment [2], the system named is untransformed tobacco plants variety Samsun. The experiment in a line: Glasshouse spray test, visible damage. The experiment is classed as in vivo. The note with it: spray 0.0 to 2000 g/ha, assessed ~1 and 3 weeks after treatment. Here is the method: as §3, §4
Experiment [3] has as its system tobacco plants transformed with Avena sativa 4-HPPD gene. The experiment in a line: Tolerance of tobacco transformed with Avena sativa HPPD to herbicides. The following applies: in vivo. The text has this:
The structure of the resulting vector is shown schematically in FIG. 4.
The 4-HPPD plant expression cassette is then ligated in to the binary vector pBin19 restricted with Hind III and EcoRI and transformed into E. coli TOP10 cells (Invitrogen). This binary vector is then transformed into tobacco using methods well known in the art and, for example, as described elsewhere herein.

Experiment [4] has as its system tobacco plants transformed to express wheat HPPD. Put plainly: Tolerance of tobacco transformed with wheat HPPD to herbicides. The following applies: in vivo. The experiment is classed as in vivo.
Description: These constructs were all transformed into Agrobacterium tumefaciens strain LBA4404, which in turn was used to transform tobacco, using methodology described previously.
Explants (i.e. a leaf plus short segment of stem containing the auxiliary bud) are placed into MS agar (+3% sucrose) containing various concentrations of mesotrione (see above) from 0.02 to 2 ppm.

Each structure is given as a SMILES string.

As for `CC1(C)C(=O)C(C(=O)c2ccc(Cl)cc2[N+](=O)[O-])C(=O)C(C)(C)C1=O` [Structure V, 2-[2-nitro-4-chlorobenzoyl]-4,4,6,6-tetramethylcyclohexane-1,3,5-trione], the Kd (in general, the concentration at which binding is half-saturated) is 0.004 nM at Arabidopsis HPPD; greater than 1.5 nM on P. fluorescens HPPD (without glycerol, Kd = koff/kon, read-out: Kd); 0.011 nM on Wheat HPPD (Kd, without glycerol, Kd = koff/kon). Further, the “ratio Kd4/Kd1, structure V to structure I” value is given as 0.28 on Arabidopsis HPPD and greater than 4.3 at P. fluorescens HPPD. Further, the koff is 1.25e-06 s⁻¹ at Arabidopsis HPPD (− glycerol), less than 4e-06 s⁻¹ on Avena HPPD, greater than 0.0002 s⁻¹ on P. fluorescens HPPD (− glycerol) and 4.2e-06 s⁻¹ on Wheat HPPD (− glycerol).
For `CS(=O)(=O)c1cc(C(F)(F)F)ccc1C(=O)c1cnoc1C1CC1` [isoxaflutole, 5-cyclopropyl-4-(2-methylsulphonyl-4-trifluoromethylbenzoyl)-isoxazole], the “fold less susceptible of mesotrione than of the named herbicide” value in experiment [1] is on record as 4-10 fold. Moreover, the “fold more susceptible of the herbicide than of mesotrione” value in experiment [2] is 1-2 fold. Further, the “resistance of the transgenic plants compared with that to mesotrione” value in experiment [3] and in experiment [4] was “substantially less resistant” in each case.
